The text below walks through data of patent US20040152674A1, “Pharmaceutically active compounds and methods of use thereof” (Trustees of Tufts College, priority 1998, published 2004).

Converted amounts (≈) assume the structure as drawn. Bounds are passed on as bounds.

One test relates to E. coli D31m4(pHCM1) (B). Briefly: MIC in L broth tubes (Example 10). The class given is cell-based. Particulars: Escherichia coli, read-out: Minimum Inhibitory Concentration. As for the experimental part: (§1) The inhibitory effects of compounds of the invention were examined relative to doxycycline using tetracycline-sensitive and tetracycline-resistant strains of E. coli, S. aureus, and E. faecalis as specified in the Tables below. The general protocol for performing these experiments was as follows: cultures were grown up fresh in L broth in the morning from an overnight culture. After 4-6 hours of growth, each bacterial culture was diluted to an A530 of 0.2-0.5 depending on the strain (E. coli, 0.5; S. aureus, 0.4; E. faecalis, 0.2). Individual tubes, containing 1 ml of L broth and different concentrations of the tested compound, were inoculated with the different bacterial cultures and then incubated at 37° C. After 17-18 hours of incubation, the concentration of the tested compound at which no observed cloudiness was seen was called the minimal inhibitory concentration (MIC). The results obtained are set forth in Tables 2 and 3 below, with the MIC values expressed in μg/ml and set forth in columns beneath the tested compound.

Test [1] concerns E. coli D31m4. Put plainly: MIC in L broth tubes (Example 10). The test is classed as cell-based. Particulars: Escherichia coli, D31M4, read-out: Minimum Inhibitory Concentration. As for the experimental part:
as §1

Test [2] has as its system E. faecalis ATCC9790. Briefly: MIC in L broth tubes (Example 10). The test is classed as cell-based. Particulars: Enterococcus faecalis; E. faecalis ATCC9790, tetracycline sensitive; 17-18 hours, 37° C.; read-out: Minimum Inhibitory Concentration. As for the experimental part:
as §1

The subject of the next test is E. faecalis pAM211 (L). Briefly: MIC in L broth tubes (Example 10). The test is classed as cell-based. Particulars: Enterococcus faecalis, read-out: Minimum Inhibitory Concentration. The protocol:
as §1

A further test concerns S. aureus 12715 (K). Briefly: MIC in L broth tubes (Example 10). The test is classed as cell-based. Particulars: Staphylococcus aureus, tetracycline resistant, 17-18 hours, 37° C., read-out: Minimum Inhibitory Concentration. As for the experimental part:
as §1

The next test concerns S. aureus RN4250 (K). Put plainly: MIC in L broth tubes (Example 10). Particulars: Staphylococcus aureus, read-out: Minimum Inhibitory Concentration. The class given is cell-based. As for the experimental part:
as §1

For test [3], the system named is S. aureus RN450. Put plainly: MIC in L broth tubes (Example 10). The class given is cell-based. The note with it: Staphylococcus aureus; S. aureus RN450, tetracycline sensitive; 17-18 hours, 37° C.; read-out: Minimum Inhibitory Concentration. As for the experimental part: as §1
A further test concerns VRE 11. Briefly: MIC in L broth tubes (Example 10). The test is classed as cell-based. The note with it: Enterococcus, read-out: Minimum Inhibitory Concentration. The protocol:
as §1

A further test deals with VRE 15. Briefly: MIC in L broth tubes (Example 10). The test is classed as cell-based. The note with it: Enterococcus, read-out: Minimum Inhibitory Concentration. As for the experimental part: as §1
For another test, the system named is VRE 17. Briefly: MIC in L broth tubes (Example 10). The test is classed as cell-based. The note with it: Enterococcus; VRE 17, tetracycline sensitive; read-out: Minimum Inhibitory Concentration. As for the experimental part:
as §1

Another test concerns VRE 19. Briefly: MIC in L broth tubes (Example 10). The class given is cell-based. The note with it: Enterococcus; VRE 19, tetracycline sensitive; read-out: Minimum Inhibitory Concentration. The protocol:
as §1

The test system of the next test is E. faecalid pMV158 (L). Briefly: MIC in L broth tubes (Example 10). The class given is cell-based, E. faecalis. Particulars: Enterococcus faecalis, read-out: Minimum Inhibitory Concentration. The protocol: as §1
The next test has as its system MRSA 1. Briefly: MIC in L broth tubes (Example 10). The class given is cell-based, S. aureus. The protocol:
as §1

Another test relates to MRSA 3. Briefly: MIC in L broth tubes (Example 10). The class given is cell-based, S. aureus. Particulars: Staphylococcus aureus, read-out: Minimum Inhibitory Concentration. As for the experimental part: as §1
The test system of another test is E. coli D31m4(pHCM1). Put plainly: MIC by broth dilution method (Table 4). The test is classed as cell-based. Details: unit not given here. Particulars: E. coli D31m4(pHCM1) Tcr; 18 hours. As for the experimental part:
(§2) The minimum inhibitory concentration, the lowest concentration of drug that inhibits bacterial growth at 18 hours at their appropriate temperature, is determined by the broth dilution method using L-broth or Muller-Hinton broth. The Muller-Hinton broth was cation-adjusted accordingly and all bacteriological methods were performed as was described by Waitz, J. A., National Commision for Clinical Laboratory Standards Document M7-A2, vol.10, no. 8, pp.13-20, 2nd edition, Villanova, Pa. (1990). The organisms tested represent gram-positive and gram-negative bacterial species that are susceptible to tetracyclines or are resistant to tetracyclines due to the ability to efflux tetracyclines or which confer resistance by ribosomal protection mechanisms. The clinical strains used are either susceptible to tetracyclines or are resistant to them by either drug efflux or ribosomal protection.
On the technique in general: Dilution methods test growth across graded concentrations, often in twofold steps.

In test [4] the test system is E. coli D31m4. Briefly: MIC by broth dilution method (Table 4). The test is classed as cell-based. The arrangement: unit not given here. Particulars: E. coli D31m4* Tc^r, lipopolysaccharide-deficient mutant; 18 hours. The protocol: as §2
Test [5] deals with E. faecalis ATCC9790. Put plainly: MIC by broth dilution method (Table 4). The test is classed as cell-based. Details: unit not given here. Particulars: E. faecalis Tc^r ATCC9790; 18 hours. As for the experimental part: as §2
The next test has as its system E. faecalis pAM211. Briefly: MIC by broth dilution method (Table 4). Particulars: E. faecalis pAM211 Tc^r; 18 hours. The class given is cell-based. The arrangement: unit not given here. The protocol:
as §2

A further test relates to E. faecalis pMV158. Put plainly: MIC by broth dilution method (Table 4). The test is classed as cell-based. Details: unit not given here. Particulars: E. faecalis pMV158 Tc^r; 18 hours. As for the experimental part:
as §2

For another test, the system named is S. aureus ATCC12715. Put plainly: MIC by broth dilution method (Table 4). The class given is cell-based. The arrangement: unit not given here. The note with it: S. aureus Tc^r ATCC12715; 18 hours. The protocol:
as §2

The test system of another test is S. aureus MRSA5. Put plainly: MIC by broth dilution method (Table 4). The test is classed as cell-based. Details: unit not given here. Particulars: S. aureus MRSA5 Tc^r; 18 hours. The protocol:
as §2

The next test has as its system S. aureus RN4250. Briefly: MIC by broth dilution method (Table 4). Particulars: S. aureus RN4250 Tc^r; 18 hours. Details: unit not given here. The class given is cell-based. The protocol:
as §2

Test [6] concerns S. aureus RN450. Briefly: MIC by broth dilution method (Table 4). The test is classed as cell-based. Details: unit not given here. Particulars: S. aureus RN450 Tc^s; 18 hours. The protocol:
as §2

For `C[C@H]1c2cccc(O)c2C(=O)C2=C(O)[C@]3(O)C(=O)C(C(N)=O)=C(O)[C@@H](N(C)C)C3[C@@H](O)C21` (stereo partly drawn) [Doxycycline, [4S-(4alpha,12aalpha)]-4-(dimethylamino)-1,4,4a,5,5a,6,11,12a-octahydro-3,5,10,12,12a-pentahydroxy-6-methyl-1,11-dioxo-2-naphthacenecarboxamide, reference compound], the MIC in the test on E. coli D31m4(pHCM1) (B) was 12.5 µg/mL (≈ 28.1 µM); in the test on E. coli D31m4 [1], under 0.78 µg/mL; in the test with E. faecalis ATCC9790 [2], under 0.78 µg/mL; in the test with E. faecalis pAM211 (L), 12.5 µg/mL (≈ 28.1 µM); in the test with S. aureus 12715 (K) it was 25 µg/mL (≈ 56.3 µM); in the test with S. aureus RN4250 (K), 12.5 µg/mL (≈ 28.1 µM). Also, the MIC was under 0.78 µg/mL in the test on S. aureus RN450 [3]; 12.5 µg/mL (≈ 28.1 µM) in the test with VRE 11; 12.5 µg/mL (≈ 28.1 µM) with VRE 15; at most 1.56 µg/mL in the test on VRE 17; at most 1.56 µg/mL in the test with VRE 19; 12.5 µg/mL (≈ 28.1 µM) in the test with E. faecalid pMV158 (L). Further, the MIC in the test with MRSA 1 (Staphylococcus aureus, MRSA, read-out: Minimum Inhibitory Concentration) came out at 6.25 µg/mL (≈ 14.1 µM); in the test with MRSA 3, 6.25 µg/mL (≈ 14.1 µM). Also, the “Minimum Inhibitory Concentration” value with MRSA 1 (MRSA 1, listed under Tetracycline Sensitive Bacteria) was determined as 6.25 µg/mL. The “Antibacterial activity (minimum inhibitory concentration)” value came out at 12.5 in the test with E. coli D31m4(pHCM1); 0.78 in the test on E. coli D31m4 [4]; 0.39 with E. faecalis ATCC9790 [5]; 12.5 with E. faecalis pAM211; 6.25 in the test on E. faecalis pMV158; 50 in the test with S. aureus ATCC12715. For the same compound, the “Antibacterial activity (minimum inhibitory concentration)” value turned out to be 6.25 in the test with S. aureus MRSA5, 25 with S. aureus RN4250 and 0.195 in the test on S. aureus RN450 [6].

Take `CC1c2ccc(C(C)(C)CCCBr)c(O)c2C(=O)C2=C(O)[C@]3(O)C(=O)C(C(N)=O)=C(O)[C@@H](N(C)C)C3C(O)C21` (stereo partly drawn) [I, [4S-(4alpha,12aalpha)]-9-[4′-(1′-bromo-4′-methyl)pentyl]-4-(dimethylamino)-1,4,4a,5,5a,6,11,12a-octahydro-3,5,10,12,12a-pentahydroxy-6-methyl-1,11-dioxo-2-naphthacenecarboxamide]: the “Antibacterial activity (minimum inhibitory concentration)” value turned out to be 1.56 in the test with E. coli D31m4(pHCM1); 1.56 with E. coli D31m4 [4]; 0.39 in the test with E. faecalis ATCC9790 [5]; 0.78 in the test with E. faecalis pAM211; 0.08 in the test with E. faecalis pMV158; 0.78 in the test with S. aureus ATCC12715. In addition, the “Antibacterial activity (minimum inhibitory concentration)” value in the test on S. aureus MRSA5 amounted to 0.39; in the test with S. aureus RN4250 it was 0.08; in the test on S. aureus RN450 [6], 0.39.

As for `CC1c2ccc(C(C)(C)CCCN(C)C)c(O)c2C(=O)C2=C(O)[C@]3(O)C(=O)C(C(N)=O)=C(O)[C@@H](N(C)C)C3C(O)C21` (stereo partly drawn) [J, [4S-(4alpha,12aalpha)]-9-[4′-(1′-dimethylamino-4′-methyl)pentyl]-4-(dimethylamino)-1,4,4a,5,5a,6,11,12a-octahydro-3,5,10,12,12a-pentahydroxy-6-methyl-1,11-dioxo-2-naphthacenecarboxamide], the “Antibacterial activity (minimum inhibitory concentration)” value in the test with E. coli D31m4(pHCM1), in the test with E. coli D31m4 [4], in the test on E. faecalis ATCC9790 [5], in the test on E. faecalis pAM211, in the test with E. faecalis pMV158 and in the test with S. aureus ATCC12715 was 50 throughout. Further, the “Antibacterial activity (minimum inhibitory concentration)” value in the test on S. aureus MRSA5, with S. aureus RN4250 and with S. aureus RN450 [6] was 50 in each case.

For the compound `CC(=O)OC(CCC(C)C)c1ccc2c(c1O)C(=O)C1=C(O)C3(O)C(=O)C(C(N)=O)=C(O)C(N(C)C)C3C(O)C1C2C` (stereo not drawn) [Compound N, [4S-(4alpha,12aalpha)]-9-[4′-(1′-acetoxy-4′-methyl)pentyl]-4-(dimethylamino)-1,4,4a,5,5a,6,11,12a-octahydro-3,5,10,12,12a-pentahydroxy-6-methyl-1,11-dioxo-2-naphthacenecarboxamide], the “Antibacterial activity (minimum inhibitory concentration)” value in the test with E. coli D31m4(pHCM1) is recorded as 3.12; in the test on E. coli D31m4 [4] it was 3.12; in the test on E. faecalis ATCC9790 [5], 1.56; in the test with E. faecalis pAM211 it was 1.56; with E. faecalis pMV158, 0.78; with S. aureus ATCC12715, 1.56. Also, the “Antibacterial activity (minimum inhibitory concentration)” value in the test on S. aureus MRSA5, with S. aureus RN4250 and with S. aureus RN450 [6] was 1.56 in each case.

Take `CC(=O)OC1C2C(=C(O)C3(O)C(=O)C(C(N)=O)=C(O)C(N(C)C)C13)C(=O)c1c(ccc(C(C)(C)C)c1O)C2C` (stereo not drawn) [C, [4S-(4alpha,12aalpha)]-9-(tert-butyl)-4-(dimethylamino)-5-acetylcarbonyloxy-1,4,4a,5,5a,6,11,12a-octahydro-3,10,12,12a-tetrahydroxy-6-methyl-1,11-dioxo-2-naphthacenecarboxamide]: the “Antibacterial activity (minimum inhibitory concentration)” value in the test with E. coli D31m4(pHCM1) is reported as 3.12; in the test on E. coli D31m4 [4], 3.12; in the test with E. faecalis ATCC9790 [5] it was 0.78; in the test with E. faecalis pAM211 it was 0.78; with E. faecalis pMV158, 0.39; with S. aureus ATCC12715, 0.78. The figures for the “Antibacterial activity (minimum inhibitory concentration)” value in the test on S. aureus MRSA5, in the test with S. aureus RN4250 and in the test with S. aureus RN450 [6] were 1.56, 0.39 and 0.39, respectively.
